Laboratory results published in patent US20240148747A1, “SMALL MOLECULE ACTIVATORS OF YAP TRANSCRIPTIONAL ACTIVITY FOR REGENERATIVE ORGAN REPAIR” (THE SCRIPPS RESEARCH INSTITUTE, priority 2021, published 2024).
Where two headings read alike, the source gives them in different places. Each block holds one compound with its values, some of them ahead of it.

What was measured:
YAP = test: TEAD-LUC activation assay (293A-TEAD-LUC reporter); format: cell-based; conditions: Homo sapiens, read-out: TEAD-LUC activation assay EC50
Excerpt: More specifically, we used a 293A cell line harboring a stably integrated cassette containing 8 copies of the TEAD binding element upstream of luciferase (8xGTII-LUC). These cells retain responsiveness to contact inhibition-induced decreases in YAP transcriptional output.^6 The TEAD-responsive reporter assay (called 293A-TEAD-LUC throughout) was adapted to 1536-well format and then used to screen a library of ˜738k compounds for YAP-inducing activity.
Additional compounds of the present disclosure were subjected to the assay described above.

[1] = Cytotoxicity in the TEAD-LUC activation assay; conditions: human

Compound: O=C(NCCCc1nccs1)c1ncoc1-c1ccccc1 [Compound 87]
EC50 (YAP; Table 3): > 20 µM
IC50 [1]: > 20 µM

Compound: O=C(NCCCc1nccs1)c1nc2ccccc2o1 [Compound 88]
EC50 (YAP; Table 3): > 20 µM
IC50 [1]: > 20 µM

Compound: O=C(NCCCc1nccs1)c1cc(-c2ccc(F)cc2F)on1 [Compound 89]
EC50 (YAP; Table 3): 10 µM
IC50 [1]: > 20 µM

Compound: O=C(NCCc1nccs1)c1cc(-c2ccccc2)on1 [Compound 90]
EC50 (YAP; Table 3): 2.5 µM
IC50 [1]: > 20 µM

Compound: O=C(NCCCc1nccs1)c1cc(C(F)(F)F)ccn1 [Compound 91]
EC50 (YAP; Table 3): 15 µM
IC50 [1]: > 20 µM

Compound: O=C(NCCCc1nccs1)c1cncc(C(F)(F)F)c1 [Compound 92]
EC50 (YAP; Table 3): > 20 µM
IC50 [1]: > 20 µM

Compound: O=C(NCCn1cccc1)c1n[nH]c2ccccc12 [Compound 93]
EC50 (YAP; Table 3): > 20 µM
IC50 [1]: > 20 µM

Compound: O=C(NCCCc1nccs1)c1cc(-c2c(F)cccc2F)on1 [Compound 94]
EC50 (YAP; Table 3): 1 µM
IC50 [1]: > 20 µM

Compound: O=C(NCCCNc1cccc(F)c1)c1cc(-c2ccccc2)on1 [Compound 95]
EC50 (YAP; Table 3): 2.5 µM
IC50 [1]: > 20 µM

Compound: Cc1cncc(C(=O)NCCCc2nccs2)c1 [Compound 96]
EC50 (YAP; Table 3): > 20 µM
IC50 [1]: > 20 µM

Compound: O=C(NCCCn1ccnn1)c1n[nH]c2ccccc12 [Compound 97]
EC50 (YAP; Table 3): > 20 µM
IC50 [1]: > 20 µM

Compound: O=C(NCCc1nccs1)c1cc(-c2c(F)cccc2F)on1 [Compound 98]
EC50 (YAP; Table 3): > 20 µM
IC50 [1]: > 20 µM

Compound: O=C(NCCCN1CCOCC1)c1cc(-c2ccccc2F)on1 [Compound 100]
EC50 (YAP; Table 3): 10 µM
IC50 [1]: > 20 µM

Compound: O=C(NCCCn1cccc1)c1n[nH]c2ccccc12 [Compound 101]
EC50 (YAP; Table 3): > 20 µM
IC50 [1]: > 20 µM

Compound: O=C(NCCCc1nccs1)c1ncc(-c2ccccc2)o1 [Compound 102]
EC50 (YAP; Table 3): > 20 µM
IC50 [1]: > 20 µM

Compound: O=C(NCCCc1nccs1)c1noc(-c2ccccc2)n1 [Compound 103]
EC50 (YAP; Table 3): > 20 µM
IC50 [1]: > 20 µM

Compound: O=C(N[C@H]1C[C@@H]1n1cccc1)c1cc(-c2ccccc2)on1 [Compound 104]
EC50 (YAP; Table 3): > 20 µM
IC50 [1]: > 20 µM

Compound: O=C(NCCCc1nccs1)c1cc(C(F)(F)F)ncn1 [Compound 105]
EC50 (YAP; Table 3): > 20 µM
IC50 [1]: > 20 µM

Compound: S=C(NCCn1cccc1)c1cc(-c2ccccc2)on1 [Compound 106, N-(2-(1H-pyrrol-1-yl)ethyl)-5-phenylisoxazole-3-carbothioamide]
EC50 (YAP; Table 3): > 20 µM
IC50 [1]: > 20 µM

Compound: CC(C)(CO)NC(=O)c1cc(-c2ccccc2)on1 [Compound 107]
EC50 (YAP; Table 4): > 20 µM
IC50 [1]: > 20 µM

Compound: Cc1ccc(C2CCCN2C(=O)c2cc(-c3ccc4c(c3)OCO4)on2)cc1 (stereo not shown) [Compound 108]
EC50 (YAP; Table 4): > 20 µM
IC50 [1]: > 20 µM

Compound: COc1ccccc1-c1cc(C(=O)N2CCCC2c2cc(C)no2)no1 (stereo not shown) [Compound 109]
EC50 (YAP; Table 4): > 20 µM
IC50 [1]: > 20 µM

Compound: O=C(c1cc(-c2ccccc2)on1)N1CCC(n2cccc2)CC1 [Compound 115]
EC50 (YAP; Table 4): > 20 µM
IC50 [1]: > 20 µM

Compound: Cc1ccc(-c2cc(C(=O)NCCC(=O)NC(C)C)no2)cc1C [Compound 116]
EC50 (YAP; Table 4): > 20 µM
IC50 [1]: 1 µM

Compound: CCN(CC)CCCNC(=O)c1cc(-c2ccc(Cl)cc2)on1 [Compound 117]
EC50 (YAP; Table 4): > 20 µM
IC50 [1]: > 20 µM

Compound: CCN1CCN(C(CNC(=O)c2cc(-c3ccccc3)on2)c2ccc(OC)cc2)CC1 (stereo not shown) [Compound 118]
EC50 (YAP; Table 4): > 20 µM
IC50 [1]: > 20 µM

Compound: Cc1ccc(-c2cc(C(=O)NCCC(=O)N(C)Cc3ccccc3)no2)cc1 [Compound 119]
EC50 (YAP; Table 4): > 20 µM
IC50 [1]: > 20 µM

Compound: O=C(NCCCN1CCOCC1)c1cc(-c2ccc(Cl)c(Cl)c2)on1 [Compound 120]
EC50 (YAP; Table 4): > 20 µM
IC50 [1]: > 20 µM

Compound: CC(=O)Nc1cccc(NC(=O)c2cc(-c3ccccc3)on2)c1 [Compound 123]
EC50 (YAP; Table 4): > 20 µM
IC50 [1]: > 20 µM

Compound: CCN1C(=O)NC(=O)C12CCN(C(=O)c1cc(-c3ccccc3)on1)CC2 [Compound 125]
EC50 (YAP; Table 4): > 20 µM
IC50 [1]: > 20 µM

Compound: CN(C)CCN(C(=O)c1cc(-c2ccccc2)on1)c1ccccc1 [Compound 126]
EC50 (YAP; Table 4): > 20 µM
IC50 [1]: > 20 µM

Compound: COc1ccc(OC)c(-c2cc(C(=O)NCCc3nc(C)cs3)no2)c1 [Compound 130]
EC50 (YAP; Table 4): > 20 µM
IC50 [1]: > 20 µM

Compound: Cc1ccc(C(=O)NC2CCN(C(=O)c3cc(-c4ccccc4)on3)CC2)o1 [Compound 132]
EC50 (YAP; Table 4): > 20 µM
IC50 [1]: > 20 µM

Compound: NC(=O)CCN(Cc1ccccc1)C(=O)c1cc(-c2ccccc2)on1 [Compound 133]
EC50 (YAP; Table 4): > 20 µM
IC50 [1]: > 20 µM

Compound: O=C(NCCCN1CCOCC1)c1cc(-c2ccc(Cl)cc2)on1 [Compound 134]
EC50 (YAP; Table 4): > 20 µM
IC50 [1]: > 20 µM

Compound: O=C(NCCCN1CCOCC1)c1cc(-c2ccc(F)cc2)on1 [Compound 135]
EC50 (YAP; Table 4): > 20 µM
IC50 [1]: > 20 µM

Compound: O=C(c1cc(-c2ccccc2)on1)N1CCC(Nc2ncccn2)CC1 [Compound 137]
EC50 (YAP; Table 4): > 20 µM
IC50 [1]: > 20 µM

Compound: O=C(c1cc(-c2ccccc2)on1)N1CCC(c2nc3ccccc3s2)CC1 [Compound 138]
EC50 (YAP; Table 4): > 20 µM
IC50 [1]: > 20 µM

Compound: CC(=O)N1CCCN(C(=O)c2cc(-c3ccccc3)on2)CC1 [Compound 139]
EC50 (YAP; Table 4): > 20 µM
IC50 [1]: > 20 µM

Compound: O=C(c1cc(-c2ccccc2)on1)N1CCCN(c2cccnn2)CC1 [Compound 140]
EC50 (YAP; Table 4): > 20 µM
IC50 [1]: > 20 µM

Compound: O=C(Nc1ccccc1-n1cncn1)c1cc(-c2ccccc2)on1 [Compound 143]
EC50 (YAP; Table 4): > 20 µM
IC50 [1]: > 20 µM

Compound: CN1C(=O)CCc2cc(NC(=O)c3ccncc3)ccc21 [Compound 146]
EC50 (YAP; Table 4): 15 µM
IC50 [1]: > 20 µM

Compound: O=C(NCCc1ccccc1)c1n[nH]c2ccccc12 [Compound 148]
EC50 (YAP; Table 4): > 20 µM
IC50 [1]: > 20 µM

Compound: O=C(NC1CCCc2ccccc21)c1cc(-c2ccccc2)n[nH]1 (stereo not shown) [Compound 151]
EC50 (YAP; Table 4): 10 µM
IC50 [1]: > 20 µM

Compound: CCN1C(=O)CCc2cc(NC(=O)c3cccc(Br)c3)ccc21 [Compound 152]
EC50 (YAP; Table 4): 10 µM
IC50 [1]: > 20 µM

Compound: CC(=O)c1ccc(NC(=O)c2cc(-c3ccncc3)[nH]n2)cc1 [Compound 153]
EC50 (YAP; Table 4): > 20 µM
IC50 [1]: > 20 µM

Compound: COc1ccc2cc(NC(=O)c3n[nH]c4c3CCCCC4)cnc2c1 [Compound 157]
EC50 (YAP; Table 4): 10 µM
IC50 [1]: > 20 µM

Continued by falling EC50 (YAP; Table 4), values first:

EC50 (YAP; Table 4): 10 µM
Compound: O=C(Nc1cccc(N2CCOC2=O)c1)c1cc(-c2ccccc2)on1 [Compound 144]
IC50 [1]: > 20 µM

EC50 (YAP; Table 4): 10 µM
Compound: Cc1cccc(C)c1NC(=O)c1n[nH]c(=O)c2ccccc12 [Compound 150]
IC50 [1]: > 20 µM

EC50 (YAP; Table 4): 6.71 µM
Compound: O=C(NCCCN1CCOCC1)c1cc(-c2ccccc2)on1 [Compound 112]
IC50 [1]: > 20 µM

EC50 (YAP; Table 4): 6.71 µM
Compound: CC1CN(C(=O)CCNC(=O)c2cc(-c3ccccc3)on2)CC(C)O1 (stereo not shown) [Compound 124]
IC50 [1]: > 20 µM

EC50 (YAP; Table 4): 6.04 µM
Compound: CN1CCN(CCNC(=O)c2cc(-c3ccccc3)on2)CC1 [Compound 128]
IC50 [1]: > 20 µM

EC50 (YAP; Table 4): 5.52 µM
Compound: O=C(NCCN1CCOCC1)c1cc(-c2ccc(F)cc2)on1 [Compound 136]
IC50 [1]: > 20 µM

EC50 (YAP; Table 4): 5.48 µM
Compound: O=C(NCCN1CCOCC1)c1cc(-c2ccccc2)on1 [Compound 122]
IC50 [1]: > 20 µM

EC50 (YAP; Table 4): 5 µM
Compound: CCc1cccc(NC(=O)C2CCN(C(=O)c3cc(-c4ccncc4)[nH]n3)CC2)c1 [Compound 155]
IC50 [1]: > 20 µM

EC50 (YAP; Table 4): 5 µM
Compound: Cc1ccc(N2CC(C(=O)NCc3n[nH]c4ccccc34)CC2=O)cc1 (stereo not shown) [Compound 156]
IC50 [1]: > 20 µM

EC50 (YAP; Table 4): 4.71 µM
Compound: Cc1nc(CCCNC(=O)c2cc(-c3ccccc3)on2)sc1C [Compound 142]
IC50 [1]: > 20 µM

EC50 (YAP; Table 4): 3.97 µM
Compound: O=C(NCCCN1CCCCCC1=O)c1cc(-c2ccccc2)on1 [Compound 141]
IC50 [1]: > 20 µM

EC50 (YAP; Table 4): 3.25 µM
Compound: O=C(NCCCn1cncn1)c1cc(-c2ccccc2)on1 [Compound 113]
IC50 [1]: > 20 µM

EC50 (YAP; Table 4): 3 µM
Compound: CCCN1C(=O)CCc2cc(NC(=O)c3ccn(CC)n3)ccc21 [Compound 149]
IC50 [1]: > 20 µM

EC50 (YAP; Table 4): 2.97 µM
Compound: O=C(NCCCn1ccnc1)c1cc(-c2ccccc2)on1 [Compound 114]
IC50 [1]: > 20 µM

EC50 (YAP; Table 4): 2.88 µM
Compound: Cc1ccc(NCCCNC(=O)c2cc(-c3ccccc3)on2)nc1 [Compound 131]
IC50 [1]: > 20 µM

EC50 (YAP; Table 4): 2.68 µM
Compound: CN1CCN(CCCNC(=O)c2cc(-c3ccccc3)on2)CC1 [Compound 127, N-[3-(4-methylpiperazin-1-yl)propyl]-5-phenyl-1,2-oxazole-3-carboxamide]
IC50 [1]: > 20 µM

EC50 (YAP; Table 4): 2.5 µM
Compound: CN1C(=O)CCc2cc(NC(=O)c3n[nH]c4ccccc34)ccc21 [Compound 147]
IC50 [1]: > 20 µM

EC50 (YAP; Table 4): 2 µM
Compound: CCN1C(=O)CCc2cc(NC(=O)c3n[nH]c4ccccc34)ccc21 [Compound 145]
IC50 [1]: > 20 µM

EC50 (YAP; Table 4): 2 µM
Compound: N#Cc1cccc(NC(=O)c2cc(-c3ccncc3)[nH]n2)c1 [Compound 154]
IC50 [1]: > 20 µM

EC50 (YAP; Table 4): 1.6 µM
Compound: O=C(NCCCn1cccn1)c1cc(-c2ccccc2)on1 [Compound 111]
IC50 [1]: > 20 µM

EC50 (YAP; Table 4): 1.02 µM
Compound: O=C(NCCCn1cccc1)c1cc(-c2ccccc2)on1 [Compound 110]
IC50 [1]: > 20 µM
